In patent US4698327A, “Novel glycopeptide derivatives” (priority 1986, dated 1987):
≈ marks a conversion by molar mass, not a printed value.

Key:
Escherichia coli N10 = assay: MIC, standard agar-dilution assay; format: cell-based
[1] = tested on: Klebsiella pneumoniae X26; assay: MIC, standard agar-dilution assay; format: cell-based
[2] = tested on: Staphylococcus aureus X400; assay: MIC, standard agar-dilution assay; format: cell-based
Escherichia coli EC14 = assay: MIC, standard agar-dilution assay; format: cell-based
[3] = tested on: Klebsiella pneumoniae X68; assay: MIC, standard agar-dilution assay; format: cell-based
[4] = tested on: Staphylococcus aureus NRRL B313; conditions: agar dilution
[5] = tested on: Streptococcus sp. group D 2041; assay: MIC, standard agar-dilution assay; format: cell-based
[6] = tested on: Staphylococcus aureus S13E; format: cell-based; conditions: agar dilution
[7] = tested on: Streptococcus faecium ATCC 9790; assay: MIC, standard agar-dilution assay; format: cell-based
[8] = tested on: Haemophilus influenzae C.L.; assay: MIC, standard agar-dilution assay; format: cell-based
[9] = tested on: Streptococcus pneumoniae Park 1; format: cell-based; conditions: agar dilution
Escherichia coli TEM = assay: MIC, standard agar-dilution assay; format: cell-based
[10] = tested on: Staphylococcus aureus V41; assay: MIC, standard agar-dilution assay; format: cell-based
[11] = tested on: Staphylococcus epidermidis EPI1; format: cell-based; conditions: agar dilution
[12] = tested on: Streptococcus pyogenes C203; assay: MIC, standard agar-dilution assay; format: cell-based
[13] = tested on: Haemophilus influenzae 76; assay: MIC, standard agar-dilution assay; format: cell-based
[14] = tested on: Staphylococcus epidermidis 222; assay: MIC, standard agar-dilution assay; format: cell-based
[15] = tested on: Klebsiella pneumoniae KAE; assay: MIC, standard agar-dilution assay; format: cell-based

Row | SMILES | MIC (Escherichia coli N10) [µg/mL] | MIC [1] [µg/mL] | MIC [2] [µg/mL] | MIC (Escherichia coli EC14) [µg/mL] | MIC [3] [µg/mL] | MIC [4] [µg/mL] | MIC [5] [µg/mL] | MIC [6] [µg/mL] | MIC [7] [µg/mL] | MIC [8] [µg/mL] | MIC [9] [µg/mL] | MIC (Escherichia coli TEM) [µg/mL] | MIC [10] [µg/mL] | MIC [11] [µg/mL] | MIC [12] [µg/mL] | MIC [13] [µg/mL] | MIC [14] [µg/mL] | MIC [15] [µg/mL]
1 | CCCCCCCCCCNC1(C)CC(OC2C(Oc3c4cc5cc3Oc3ccc(cc3Cl)C(O)C(NC(=O)C(CC(C)C)N(C)CCCCCCCCCC)C(=O)NC(CC(N)=O)C(=O)NC5C(=O)NC3C(=O)NC(C(=O)NC(C(=O)O)c5cc(O)cc(O)c5-c5cc3ccc5O)C(O)c3ccc(c(Cl)c3)O4)OC(CO)C(O)C2O)OC(C)C1O (stereo not drawn) [Compound 4, N^van, N^leu --di(n-decyl)vancomycin] | > 128 | > 128 | 4 (≈ 2.31 µM) | > 128 | > 128 | 2 (≈ 1.16 µM) | 4 (≈ 2.31 µM) | 4 (≈ 2.31 µM) | 4 (≈ 2.31 µM) | > 128 | 4 (≈ 2.31 µM) | > 128 | 4 (≈ 2.31 µM) | 16 (≈ 9.25 µM) | 2 (≈ 1.16 µM) | > 128 | 4 (≈ 2.31 µM) | > 128
2 | CCCCCCCCCNC1(C)CC(OC2C(Oc3c4cc5cc3Oc3ccc(cc3Cl)C(O)C(NC(=O)C(CC(C)C)N(C)CCCCCCCCC)C(=O)NC(CC(N)=O)C(=O)NC5C(=O)NC3C(=O)NC(C(=O)NC(C(=O)O)c5cc(O)cc(O)c5-c5cc3ccc5O)C(O)c3ccc(c(Cl)c3)O4)OC(CO)C(O)C2O)OC(C)C1O (stereo not drawn) [Compound 6, N^van, N^leu --di(n-nonyl)vancomycin] | > 128 | > 128 | 1 (≈ 0.588 µM) | > 128 | > 128 | 1 (≈ 0.588 µM) | 2 (≈ 1.18 µM) | 2 (≈ 1.18 µM) | 1 (≈ 0.588 µM) | > 128 | 2 (≈ 1.18 µM) | > 128 | 1 (≈ 0.588 µM) | 4 (≈ 2.35 µM) | 1 (≈ 0.588 µM) | > 128 | 2 (≈ 1.18 µM) | > 128
3 | CCCCCCCCNC1(C)CC(OC2C(Oc3c4cc5cc3Oc3ccc(cc3Cl)C(O)C(NC(=O)C(CC(C)C)N(C)CCCCCCCC)C(=O)NC(CC(N)=O)C(=O)NC5C(=O)NC3C(=O)NC(C(=O)NC(C(=O)O)c5cc(O)cc(O)c5-c5cc3ccc5O)C(O)c3ccc(c(Cl)c3)O4)OC(CO)C(O)C2O)OC(C)C1O (stereo not drawn) [Compound 9, N^van, N^leu --di(n-octyl)vancomycin] | > 128 | > 128 | 1 (≈ 0.597 µM) | > 128 | > 128 | 1 (≈ 0.597 µM) | 2 (≈ 1.19 µM) | 1 (≈ 0.597 µM) | 1 (≈ 0.597 µM) | > 128 | 1 (≈ 0.597 µM) | > 128 | 1 (≈ 0.597 µM) | 4 (≈ 2.39 µM) | 0.5 (≈ 0.299 µM) | > 128 | 2 (≈ 1.19 µM) | > 128
4 | CCCCCCCNC1(C)CC(OC2C(Oc3c4cc5cc3Oc3ccc(cc3Cl)C(O)C3NC(=O)C(NC(=O)C5NC(=O)C(CC(N)=O)NC(=O)C(NC(=O)C(CC(C)C)NC)C(O)c5ccc(c(Cl)c5)O4)c4ccc(O)c(c4)-c4c(O)cc(O)cc4C(C(=O)O)NC3=O)OC(CO)C(O)C2O)OC(C)C1O (stereo not drawn) [Compound 10, N^van --(n-heptyl)vancomycin] | > 128 | > 128 | 0.5 (≈ 0.323 µM) | > 128 | > 128 | 0.25 (≈ 0.162 µM) | 1 (≈ 0.646 µM) | 0.5 (≈ 0.323 µM) | 0.5 (≈ 0.323 µM) | 128 (≈ 82.7 µM) | 0.125 (≈ 0.0808 µM) | > 128 | 0.5 (≈ 0.323 µM) | 2 (≈ 1.29 µM) | 0.5 (≈ 0.323 µM) | 128 (≈ 82.7 µM) | 1 (≈ 0.646 µM) | > 128
5 | CCCCCCCNC1(C)CC(OC2C(Oc3c4cc5cc3Oc3ccc(cc3Cl)C(O)C(NC(=O)C(CC(C)C)N(C)CCCCCCC)C(=O)NC(CC(N)=O)C(=O)NC5C(=O)NC3C(=O)NC(C(=O)NC(C(=O)O)c5cc(O)cc(O)c5-c5cc3ccc5O)C(O)c3ccc(c(Cl)c3)O4)OC(CO)C(O)C2O)OC(C)C1O (stereo not drawn) [Compound 12, N^van, N^leu --di(n-heptyl)vancomycin] | > 128 | > 128 | 1 (≈ 0.608 µM) | > 128 | > 128 | 0.5 (≈ 0.304 µM) | 1 (≈ 0.608 µM) | 1 (≈ 0.608 µM) | 1 (≈ 0.608 µM) | > 128 | 0.5 (≈ 0.304 µM) | > 128 | 1 (≈ 0.608 µM) | 2 (≈ 1.22 µM) | 0.5 (≈ 0.304 µM) | 128 (≈ 77.8 µM) | 1 (≈ 0.608 µM) | > 128
6 | CCCCCCNC1(C)CC(OC2C(Oc3c4cc5cc3Oc3ccc(cc3Cl)C(O)C3NC(=O)C(NC(=O)C5NC(=O)C(CC(N)=O)NC(=O)C(NC(=O)C(CC(C)C)NC)C(O)c5ccc(c(Cl)c5)O4)c4ccc(O)c(c4)-c4c(O)cc(O)cc4C(C(=O)O)NC3=O)OC(CO)C(O)C2O)OC(C)C1O (stereo not drawn) [Compound 13, N^van --(n-hexyl)vancomycin] | > 128 | > 128 | 1 (≈ 0.652 µM) | > 128 | > 128 | 0.5 (≈ 0.326 µM) | 1 (≈ 0.652 µM) | 0.5 (≈ 0.326 µM) | 1 (≈ 0.652 µM) | 128 (≈ 83.5 µM) | 0.125 (≈ 0.0815 µM) | > 128 | 1 (≈ 0.652 µM) | 2 (≈ 1.3 µM) | 0.5 (≈ 0.326 µM) | 128 (≈ 83.5 µM) | 1 (≈ 0.652 µM) | > 128
7 | CCCCCNC1(C)CC(OC2C(Oc3c4cc5cc3Oc3ccc(cc3Cl)C(O)C3NC(=O)C(NC(=O)C5NC(=O)C(CC(N)=O)NC(=O)C(NC(=O)C(CC(C)C)NC)C(O)c5ccc(c(Cl)c5)O4)c4ccc(O)c(c4)-c4c(O)cc(O)cc4C(C(=O)O)NC3=O)OC(CO)C(O)C2O)OC(C)C1O (stereo not drawn) [Compound 15, N^van --(n-pentyl)vancomycin] | > 128 | > 128 | 1 (≈ 0.658 µM) | > 128 | > 128 | 0.5 (≈ 0.329 µM) | 2 (≈ 1.32 µM) | 1 (≈ 0.658 µM) | 1 (≈ 0.658 µM) | 128 (≈ 84.2 µM) | 0.125 (≈ 0.0823 µM) | > 128 | 1 (≈ 0.658 µM) | 2 (≈ 1.32 µM) | 0.5 (≈ 0.329 µM) | 128 (≈ 84.2 µM) | 1 (≈ 0.658 µM) | > 128
8 | CCCCNC1(C)CC(OC2C(Oc3c4cc5cc3Oc3ccc(cc3Cl)C(O)C3NC(=O)C(NC(=O)C5NC(=O)C(CC(N)=O)NC(=O)C(NC(=O)C(CC(C)C)NC)C(O)c5ccc(c(Cl)c5)O4)c4ccc(O)c(c4)-c4c(O)cc(O)cc4C(C(=O)O)NC3=O)OC(CO)C(O)C2O)OC(C)C1O (stereo not drawn) [Compound 17, N^van --(n-butyl)vancomycin] | > 128 | > 128 | 1 (≈ 0.664 µM) | > 128 | > 128 | 1 (≈ 0.664 µM) | 4 (≈ 2.66 µM) | 1 (≈ 0.664 µM) | 2 (≈ 1.33 µM) | 128 (≈ 85 µM) | 0.5 (≈ 0.332 µM) | > 128 | 1 (≈ 0.664 µM) | 4 (≈ 2.66 µM) | 1 (≈ 0.664 µM) | 128 (≈ 85 µM) | 2 (≈ 1.33 µM) | > 128
9 | CCCCNC1(C)CC(OC2C(Oc3c4cc5cc3Oc3ccc(cc3Cl)C(O)C(NC(=O)C(CC(C)C)N(C)CCCC)C(=O)NC(CC(N)=O)C(=O)NC5C(=O)NC3C(=O)NC(C(=O)NC(C(=O)O)c5cc(O)cc(O)c5-c5cc3ccc5O)C(O)c3ccc(c(Cl)c3)O4)OC(CO)C(O)C2O)OC(C)C1O (stereo not drawn) [Compound 19, N^van, N^leu --di(n-butyl)vancomycin] | > 128 | > 128 | 1 (≈ 0.64 µM) | > 128 | > 128 | 0.5 (≈ 0.32 µM) | 2 (≈ 1.28 µM) | 1 (≈ 0.64 µM) | 1 (≈ 0.64 µM) | > 128 | 0.5 (≈ 0.32 µM) | > 128 | 1 (≈ 0.64 µM) | 2 (≈ 1.28 µM) | 0.5 (≈ 0.32 µM) | 128 (≈ 82 µM) | 1 (≈ 0.64 µM) | > 128
